We go through 9 molecules from patent US12180207B2 (ARRAY BIOPHARMA INC., priority 2018, dated 2024).

The structures appear in SMILES notation.

For assay [1], the target named is recombinant human FGFR2 cytoplasmic domain (amino acids 403-822) (Homo sapiens (Human), UniProt P21802). Nature of the assay: FGFR2 enzyme activity assay (LanthaScreen TR-FRET). It is filed as biochemical. The settings on record: 15 μM ATP, 20 min incubation at 22° C., average of multiple determinations if made, read-out: FGFR2 Enz FRET IC50. Put shortly:
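Substrate phosphorylation was read by TR-FRET using Eu-PY20 antibody (60 min, 22 °C) after a 20 min, 22 °C reaction. The reaction used 15 μM ATP, 100 nM fluorescent poly-GT peptide and His-tagged FGFR2 403-822 ([…]) at pH 7.5 with 2% DMSO.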
Background: TR-FRET usually uses a lanthanide donor and a delayed reading to cut background.

The target in assay [2] is FGFR3 (SEQ ID NO: 5, amino acids 449-759) (Homo sapiens (Human), UniProt P22607). The assay is described as follows: LC/MS FGFR3 kobs assay (covalent protein modification). The settings on record: 500 nM FGFR3, 3 μM compound. It is filed as binding. Put shortly: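 Quench: 0.4% formic acid at each time point. Readout: intact-protein LC/MS (Q-TOF), deconvoluted masses. Analysis: % unmodified, normalized to DMSO controls, fit to exponential decay → kobs; mean of replicates where repeated.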
Chain of FGFR3 (SEQ ID NO: 5, amino acids 449-759) (P22607 449-759): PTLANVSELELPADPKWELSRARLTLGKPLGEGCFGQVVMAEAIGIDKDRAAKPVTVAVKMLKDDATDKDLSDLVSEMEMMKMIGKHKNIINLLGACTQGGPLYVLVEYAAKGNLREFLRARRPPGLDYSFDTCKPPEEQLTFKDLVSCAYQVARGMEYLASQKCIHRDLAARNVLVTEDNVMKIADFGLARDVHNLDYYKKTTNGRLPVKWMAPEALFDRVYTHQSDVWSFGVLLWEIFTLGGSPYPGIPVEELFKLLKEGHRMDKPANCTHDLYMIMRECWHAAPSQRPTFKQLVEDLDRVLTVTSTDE

Assay [3] deals with HEK-293 cells transfected with dox-inducible human wild type FGFR3 (Homo sapiens (Human), UniProt P22607). The assay is described as follows: FGFR3 pFGFR cell assay (ELISA). Type of assay: cell-based. The settings on record: HEK-293 dox-inducible FGFR3, 1 hour compound, 100 ng/ml FGF-acidic. Summed up: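 Doxycycline-induced (1 μg/ml) HEK-293 cells expressing wild-type human FGFR3, treated 1 h with compound (1:3 series, top final 5 μM), then stimulated 5 min with 100 ng/ml FGF-acidic. Phospho-FGFR3 measured by ELISA (total FGFR3 capture, phosphotyrosine detection, OD 450 nm); IC50 from 4-parameter fit of POC values.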
Chain of HEK-293 cells transfected with dox-inducible human wild type FGFR3 (P22607 23-806): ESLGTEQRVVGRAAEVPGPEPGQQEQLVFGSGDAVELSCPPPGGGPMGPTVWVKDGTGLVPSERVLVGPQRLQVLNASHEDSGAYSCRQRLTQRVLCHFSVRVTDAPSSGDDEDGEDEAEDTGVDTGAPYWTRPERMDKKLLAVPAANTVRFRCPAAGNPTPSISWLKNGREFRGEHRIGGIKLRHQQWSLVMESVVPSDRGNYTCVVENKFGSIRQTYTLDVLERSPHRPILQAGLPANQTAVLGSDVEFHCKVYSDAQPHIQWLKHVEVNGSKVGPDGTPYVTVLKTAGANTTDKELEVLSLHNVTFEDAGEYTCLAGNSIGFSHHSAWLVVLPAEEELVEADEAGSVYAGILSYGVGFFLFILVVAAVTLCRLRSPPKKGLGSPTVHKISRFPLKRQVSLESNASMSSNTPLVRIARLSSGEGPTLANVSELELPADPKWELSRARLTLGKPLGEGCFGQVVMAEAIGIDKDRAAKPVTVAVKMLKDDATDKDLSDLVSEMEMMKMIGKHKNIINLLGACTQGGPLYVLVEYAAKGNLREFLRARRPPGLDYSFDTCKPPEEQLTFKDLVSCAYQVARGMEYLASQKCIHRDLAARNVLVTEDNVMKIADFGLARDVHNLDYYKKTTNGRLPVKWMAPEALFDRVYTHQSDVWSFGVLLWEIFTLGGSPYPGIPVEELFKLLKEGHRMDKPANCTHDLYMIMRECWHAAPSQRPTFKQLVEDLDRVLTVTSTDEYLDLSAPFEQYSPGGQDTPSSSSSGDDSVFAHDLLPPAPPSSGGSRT
(In general: ELISA stands for enzyme-linked immunosorbent assay.)

Chain of recombinant human FGFR2 cytoplasmic domain (amino acids 403-822) (P21802 402-821): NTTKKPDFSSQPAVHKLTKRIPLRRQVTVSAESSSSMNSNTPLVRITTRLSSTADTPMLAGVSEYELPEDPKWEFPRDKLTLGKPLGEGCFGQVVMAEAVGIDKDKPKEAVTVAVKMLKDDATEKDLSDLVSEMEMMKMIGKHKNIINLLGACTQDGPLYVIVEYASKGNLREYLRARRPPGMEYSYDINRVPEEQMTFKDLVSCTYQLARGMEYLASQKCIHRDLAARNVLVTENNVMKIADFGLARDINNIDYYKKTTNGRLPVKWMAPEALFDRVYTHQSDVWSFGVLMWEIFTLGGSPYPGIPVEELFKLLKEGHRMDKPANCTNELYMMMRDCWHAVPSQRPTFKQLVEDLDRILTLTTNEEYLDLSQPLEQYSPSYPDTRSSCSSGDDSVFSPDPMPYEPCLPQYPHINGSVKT

What is called IC50 is the concentration that gives 50% inhibition. In the case of `C=CC(=O)N1CC[C@@H](C(=O)N2CCC(n3cc(-c4cc(OC)c5c(C#N)cnn5c4)cn3)CC2)C1` [Example 29, (R)-6-(1-(1-(1-acryloylpyrrolidine-3-carbonyl)piperidin-4-yl)-1H-pyrazol-4-yl)-4-methoxypyrazolo[1,5-a]pyridine-3-carbonitrile], the IC50 is 8 nM in assay [1] and 359 nM in assay [3]. In assay [2], the “FGFR3 Enz kobs” value was determined as 0.00297 min⁻¹.
As to `C=CC(=O)N1CCC(F)(C(=O)N2CCC(n3cc(-c4cc(OC)c5c(C#N)cnn5c4)cn3)CC2)C1` (stereo not drawn) [Example 30, 6-(1-(1-(1-acryloyl-3-fluoropyrrolidine-3-carbonyl)piperidin-4-yl)-1H-pyrazol-4-yl)-4-methoxypyrazolo[1,5-a]pyridine-3-carbonitrile], the IC50 amounted to 3 nM in assay [1] and 23 nM in assay [3]. In addition, the “FGFR3 Enz kobs” value in assay [2] is 0.01214 min⁻¹.
`C=CC(=O)N1CC(C)(C(=O)N2CCC(n3cc(-c4cc(OC)c5c(C#N)cnn5c4)cn3)CC2)C1` [Example 38, 6-(1-(1-(1-acryloyl-3-methylazetidine-3-carbonyl)piperidin-4-yl)-1H-pyrazol-4-yl)-4-methoxypyrazolo[1,5-a]pyridine-3-carbonitrile]: the results for the IC50 in assay [1] and in assay [3] were 3 nM and 9 nM, respectively. In assay [2], the “FGFR3 Enz kobs” value is 0.01168 min⁻¹.
The corresponding values for `C=CC(=O)N1CC(CC)(C(=O)N2CCC(n3cc(-c4cc(OC)c5c(C#N)cnn5c4)cn3)CC2)C1` [Example 40, 6-(1-(1-(1-acryloyl-3-ethylazetidine-3-carbonyl)piperidin-4-yl)-1H-pyrazol-4-yl)-4-methoxypyrazolo[1,5-a]pyridine-3-carbonitrile] are 3 nM, 16 nM and 0.01133 min⁻¹.
In the case of `C=CC(=O)Nc1cccc(C(=O)N2CC[C@@H](n3cc(-c4cc(OC)c5c(C#N)cnn5c4)cn3)C2)c1` [Example 56, (R)-N-(3-(3-(4-(3-cyano-4-methoxypyrazolo[1,5-a]pyridin-6-yl)-1H-pyrazol-1-yl)pyrrolidine-1-carbonyl)phenyl)acrylamide], the IC50 turned out to be 8 nM in assay [1] and 182 nM in assay [3]. Also, the “FGFR3 Enz kobs” value in assay [2] turned out to be 0.01264 min⁻¹.
For `C=CC(=O)N1CC(C(=O)N2CC[C@@H](n3cc(-c4cc(OC)c5c(C#N)cnn5c4)cn3)C2)C1` [Example 59, (R)-6-(1-(1-(1-acryloylazetidine-3-carbonyl)pyrrolidin-3-yl)-1H-pyrazol-4-yl)-4-methoxypyrazolo[1,5-a]pyridine-3-carbonitrile], in that order: 16 nM, 667 nM and 0.00665 min⁻¹.
For the molecule `C=CC(=O)Nc1ccc(C(=O)N2CC[C@H](n3cc(-c4cc(OC)c5c(C#N)cnn5c4)cn3)C2)cc1` [Example 66, (S)-N-(4-(3-(4-(3-cyano-4-methoxypyrazolo[1,5-a]pyridin-6-yl)-1H-pyrazol-1-yl)pyrrolidine-1-carbonyl)phenyl)acrylamide], the IC50 in assay [1] was 5 nM; in assay [3], 82 nM. For the same molecule, the “FGFR3 Enz kobs” value in assay [2] worked out at 0.0223 min⁻¹.
The corresponding values for `C=CC(=O)Nc1ccc(C(=O)N2CC[C@H](n3cc(-c4cc(OC)c5c(C#N)cnn5c4)cn3)C2)c(C)c1` [Example 68, (S)-N-(4-(3-(4-(3-cyano-4-methoxypyrazolo[1,5-a]pyridin-6-yl)-1H-pyrazol-1-yl)pyrrolidine-1-carbonyl)-3-methylphenyl)acrylamide] are 4 nM, 187 nM and 0.0095 min⁻¹.
Take `C=CC(=O)Nc1ccc(C(=O)N2CC[C@H](n3cc(-c4cc(OC)c5c(C#N)cnn5c4)cn3)C2)c(OC)c1` [Example 69, (S)-N-(4-(3-(4-(3-cyano-4-methoxypyrazolo[1,5-a]pyridin-6-yl)-1H-pyrazol-1-yl)pyrrolidine-1-carbonyl)-3-methoxyphenyl)acrylamide]: the IC50 is 6 nM in assay [1] and 311 nM in assay [3]. For the same molecule, the “FGFR3 Enz kobs” value in assay [2] was 0.01649 min⁻¹.
